8 molecules from PubChem BioAssay (NCI) can be followed below.

Test systems include SK-MEL-28 melanoma; KM12 colon; MDA-MB-435; NCI-H460 lung; K-562 leukemia; SF-268 CNS; HL-60(TB) leukemia; PC-3 prostate; COLO 205 colon; OVCAR-5 ovarian.
What all share (test): DTP human tumour cell line panel, 48 h

SMILES strings stand for the structures.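 In this assay, cells in 96-well plates receive the compound at five concentrations for 48 hours. Endpoints are linearly interpolated between the surrounding concentrations. At the GI50, growth is halved. TGI: total growth inhibition.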

On to `CC(=O)Oc1cccc2c(/C=N/NC(N)=S)ncc(C)c12`, for which the TGI (in general, the concentration giving total growth inhibition) was over 48.4 µM with SK-MEL-28 melanoma; 15.5 µM in the experiment with KM12 colon; over 45.9 µM in the experiment with MDA-MB-435; 7.81 µM in the experiment with NCI-H460 lung; over 100 µM in the experiment with K-562 leukemia; 17.8 µM in the experiment on SF-268 CNS. In addition, the TGI in the experiment on HL-60(TB) leukemia is over 100 µM; in the experiment with PC-3 prostate, 33.6 µM; in the experiment with COLO 205 colon, over 41 µM; in the experiment on OVCAR-5 ovarian, 22 µM.
Turning to `NNC(N)Nc1ccccc1` (stereo not given), the total growth inhibition concentration (TGI) with SK-MEL-28 melanoma, in the experiment on KM12 colon, in the experiment on MDA-MB-435, in the experiment on NCI-H460 lung, in the experiment with K-562 leukemia and in the experiment on SF-268 CNS was over 100 µM each time. Moreover, the TGI in the experiment on HL-60(TB) leukemia, in the experiment with PC-3 prostate, with COLO 205 colon and in the experiment on OVCAR-5 ovarian was over 100 µM throughout.
Regarding `C=CC(Br)(CBr)CCC(Cl)C(C)C` (stereo not given), the TGI with SK-MEL-28 melanoma is 2.98 µM; with KM12 colon, 2.95 µM; in the experiment on MDA-MB-435 it was 3.5 µM; in the experiment on NCI-H460 lung, 4.3 µM; with K-562 leukemia, 5.4 µM; in the experiment on SF-268 CNS it was 3.07 µM. For the same molecule, the TGI amounted to 2.38 µM in the experiment with HL-60(TB) leukemia, 14.1 µM with PC-3 prostate, 10.2 µM with COLO 205 colon and 5.03 µM in the experiment with OVCAR-5 ovarian.
Consider `CCC[CH2][Ge]([CH2]CCC)([CH2]CCC)[O]C(=O)CC(=O)c1ccccc1`, for which the GI50 (as a rule, the concentration that inhibits growth by half) in the experiment with SK-MEL-28 melanoma is 4.48 µM; in the experiment on KM12 colon, 0.883 µM; in the experiment on NCI-H460 lung, 0.325 µM; in the experiment with K-562 leukemia, 0.346 µM; in the experiment with SF-268 CNS, 4.57 µM; with HL-60(TB) leukemia, 0.138 µM. For the same molecule, the GI50 in the experiment with COLO 205 colon is 1.55 µM; in the experiment on OVCAR-5 ovarian, 2.17 µM. In addition, the TGI in the experiment on SK-MEL-28 melanoma is 19.1 µM; with KM12 colon, 16 µM; in the experiment with NCI-H460 lung, 12.4 µM; with K-562 leukemia it was 14.7 µM; in the experiment with SF-268 CNS it was 21.6 µM; in the experiment with HL-60(TB) leukemia it was 11.5 µM. Further, the results for the TGI in the experiment on COLO 205 colon and in the experiment on OVCAR-5 ovarian were 13.3 µM and 14.9 µM, respectively.
`c1ccc(N=C2SC(=NC3CCCCC3)N(C3CCCCC3)C2=Nc2ccccc2)cc1`: the concentration for total growth inhibition (TGI) in the experiment with SK-MEL-28 melanoma, in the experiment on KM12 colon, in the experiment on MDA-MB-435, in the experiment on NCI-H460 lung, in the experiment on K-562 leukemia and with HL-60(TB) leukemia was over 100 µM each time. In addition, the TGI with PC-3 prostate, in the experiment on COLO 205 colon and with OVCAR-5 ovarian was over 100 µM throughout.
Consider `NCCCNc1nc2ccccc2c2c(=O)c3cc(OC(F)(F)F)ccc3sc12`, for which the GI50 in the experiment on SK-MEL-28 melanoma was 1.8 µM; with MDA-MB-435, 1.59 µM; in the experiment with NCI-H460 lung, 1.11 µM; in the experiment with HL-60(TB) leukemia it was 1.84 µM; in the experiment with PC-3 prostate, 1.67 µM; in the experiment with OVCAR-5 ovarian, 1.64 µM. Also, the TGI in the experiment on SK-MEL-28 melanoma was 3.24 µM; with MDA-MB-435, 2.96 µM; in the experiment with NCI-H460 lung, 2.52 µM; in the experiment with HL-60(TB) leukemia it was 3.59 µM; in the experiment with PC-3 prostate it was 3.19 µM; in the experiment with OVCAR-5 ovarian, 3.07 µM.
Take `Cc1cc(=O)[nH]c(NN2C(Cl)C(=O)C2c2cccc(O)c2)n1` (stereo not given): the TGI in the experiment with SK-MEL-28 melanoma was over 100 µM; in the experiment with KM12 colon, over 100 µM; with NCI-H460 lung it was over 100 µM; with K-562 leukemia it was over 100 µM; with SF-268 CNS, over 100 µM; in the experiment on HL-60(TB) leukemia, 29.8 µM. Also, the TGI with COLO 205 colon and in the experiment on OVCAR-5 ovarian was over 100 µM each time.
Take `NC(CCCCP(=O)(O)O)C(=O)O` (stereo not given): the TGI in the experiment with SK-MEL-28 melanoma, in the experiment on KM12 colon, in the experiment on MDA-MB-435, with NCI-H460 lung, in the experiment on K-562 leukemia and with SF-268 CNS was over 100 µM throughout. Besides, the TGI in the experiment on HL-60(TB) leukemia, with PC-3 prostate, in the experiment on COLO 205 colon and in the experiment with OVCAR-5 ovarian was over 100 µM throughout.
